Laboratory results from paper PMC7765409 (International Journal of Molecular Sciences, 2020).

Legend:
[1] = test system: lipid droplet accumulation in TG/FA-treated hiPSC-Hep; assay: hiPSC-Hep ER-stress (TG/FA) induced lipid droplet accumulation high-content assay, integrated spot signal (BODIPY 493/503); format: cell-based, human; settings: Homo sapiens; for IC50: 10-point dose-response, pre-treatment then TG/FA 18 h, read-out: IC50, inhibition of lipid accumulation (integrated spot signal); for EC50: Figure S5 dose-response, read-out: EC50, inhibition of lipid droplet accumulation (black line: ISS)
Protocol: Cryopreserved hiPSC-derived hepatocytes (iCell Hepatocytes 2.0; Cellular Dynamics International Madison, WI) plated at a density of 36 K/well in 384-well on collagen I coated Corning Biocoat 384-well plates (BD Biosciences, 101306), were cultured to promote hepatic differentiation and maturation into hepatic-like cells as previously described. Hepatocytes were plated according to the manufacturer’s protocol in a volume of 50 µL/well using BioTek^TM Microflo^TM select dispenser (#7170011, BioTek Instruments) for high-throughput and high-content analysis assay (HT/HCA) drug discovery. After plating cells were cultured according to vendor specifications in a cell culture incubator at 37 °C, 5% CO2 for 3–4 h. Then, 40 µL spent medium was aspirated using multi-channel automated pipette handling system (Integra ViaFlo 96/384) and replaced with 40 µL (80% exchange) of fresh plating medium. Approximately 24 h post-plating 80% of medium was replaced every day thereafter. At day 5 of differentiation, 40 µL/well spent medium was replaced with maintenance medium (MM) consisting of William’s E medium (Thermo Fisher Scientific) supplemented with 0.1 µM dexamethasone and hepatocyte maintenance supplement pack (Thermo Fisher Scientific) for an additional 2–3 days before HCA. The overview of automated HT system for hiPSC-derived hepatocytes differentiation, staining and image analysis for phenotypic screening is depicted in Figure S2. Primary screening hit confirmation and dose response studies were performed on different batches of hiPSC-derived hepatocytes.
To induce hepatic triglycerides (TAG) accumulation, before staining, cells were treated with 20 μL of 2× FA mixture, consisting of different proportions of oleic acid (OA-BSA, 25 µM, Sigma, #O3008), palmitic acid (PA-BSA, 200 µM, Agilent Technologies, #102720100) and thapsigargin (TG, 1 µM, Abcam, #120286) with a total volume of 40 μL/well. The TG/FA mixture was dispensed with BioTek^TM Microflo^TM select dispenser (#7170011, BioTek Instruments) and incubated for 18 h. Next, to label TAG accumulation stored into cytoplasmic lipid droplets, upon treatment, living cells were washed two times with warm Dulbecco’s Phosphate-Buffered Saline 1X (PBS, Corning, #21-031CV) with a handheld 384-channel electronic pipette device and then incubated for 15 min with a lipophilic dye, BODIPY 493/503 (8 ug/mL Life technologies, #D3922-green), in PBS at 37 °C. BODIPY (493/503) has become the standard dye utilized by scientists to study lipid droplets in live cells. After three washes with PBS cells were fixed with 4% paraformaldehyde methanol-free (PFA, Electron Microscopy Science, #15710) in PBS for 15 min at room temperature (RT). Cell health was monitored by Hoechst 33342 (10 ug/mL, Molecular Probe, #H21492) staining in PBS for nuclear count. After TAG staining the 384-assay plates were loaded in an automated confocal microscope with Opera High Content Imaging System (PerkinElmer, Waltham, MA, USA). Dyes were excited and images were captured on the Hoechst 3342 and Alexa Fluor 488 channels and signals were collected with a long pass filter 410 and 505 nm, for nuclei and TAG, respectively, at objective 20× air objective for HCA. To capture enough cells (>600) for the analysis, eight fields per well were imaged. Hoechst 33342 fluorescence was used to identify the nuclear region and cell counts. To assess intracellular fat deposits, BODIPY 493/503 fluorescence intensity was measured inside the cytoplasm region.
For the HCA screen, compounds tested for their inhibitory effects, were used as single dose at a 10 μM final concentration of compound in DMSO in each well (0.1% DMSO) in 20 μL of maintenance medium. Prior to compound addition, 30 µL/well of medium was removed from hiPSC-Hep cells screening plates with ViaFlo ([…]). Pre-spotted 80 nL of 10 mM compound were diluted to 20 μM (0.2% DMSO) in 40 μL of maintenance medium in the source 384-well plate. […]

CDK8 = test system: CDK8; set-up: method as in AstraZeneca data repository; settings: median log of IC50/EC50/Ki/Kd annotations, highest value; ref AstraZeneca data repository; cited from earlier work
CDK1 = test system: CDK1; set-up: method as in AstraZeneca data repository; settings: median log of IC50/EC50/Ki/Kd annotations, highest value; ref AstraZeneca data repository; cited from earlier work
CDK4 = test system: CDK4; set-up: method as in AstraZeneca data repository; settings: median log of IC50/EC50/Ki/Kd annotations, highest value; ref AstraZeneca data repository; cited from earlier work
CDK14 = test system: CDK14; set-up: method as in AstraZeneca data repository; settings: median log of IC50/EC50/Ki/Kd annotations, highest value; ref AstraZeneca data repository; cited from earlier work
CDK9 = test system: CDK9; set-up: method as in AstraZeneca data repository; settings: median log of IC50/EC50/Ki/Kd annotations, highest value; ref AstraZeneca data repository; cited from earlier work
CDK5R1 = test system: CDK5R1; set-up: method as in AstraZeneca data repository; settings: median log of IC50/EC50/Ki/Kd annotations, highest value; ref AstraZeneca data repository; cited from earlier work
CDK6 = test system: CDK6; set-up: method as in AstraZeneca data repository; settings: median log of IC50/EC50/Ki/Kd annotations, highest value; ref AstraZeneca data repository; cited from earlier work
CDK16 = test system: CDK16; set-up: method as in AstraZeneca data repository; settings: median log of IC50/EC50/Ki/Kd annotations, highest value; ref AstraZeneca data repository; cited from earlier work
CDK7 = test system: CDK7; set-up: method as in AstraZeneca data repository; settings: median log of IC50/EC50/Ki/Kd annotations, highest value; ref AstraZeneca data repository; cited from earlier work

SMILES	IC50 [1] [µM]	EC50 [1] [µM]	pXC50 CDK8 (CDK8)	pXC50 CDK1 (CDK1)	pXC50 CDK4 (CDK4)	pXC50 CDK14 (CDK14)	pXC50 CDK9 (CDK9)	pXC50 CDK5R1 (CDK5R1)	pXC50 CDK6 (CDK6)	pXC50 CDK16 (CDK16)	pXC50 CDK7 (CDK7)
Cc1ncc(-c2nc(Nc3ccc(N4CCN(C(=O)CO)CC4)cc3)ncc2F)n1C(C)C [C3]	0.32	0.32	5.60	7.61	7.33	–	–	–	–	–	–
CNC(=O)c1nn(C)c2c1C(C)(C)Cc1cnc(Nc3ccc(N4CCN(C)CC4)cc3)nc1-2 [C16, Milciclib]	4.6	4.6	–	6.84	7.16	6.13	5.60	6.58	7.61	7.10	7.51
